Key:
Experiment in all cases: Test E pre-/postemergence greenhouse herbicide test
Type in all cases: in vivo
[1] = test system: lambsquarters (Chenopodium album); conditions: Preemergence, scale 0 to 100
From the text: (§1) Seeds of plant species selected from corn (Zea mays), soybean (Glycine max), lambsquarters (Chenopodium album), poinsettia, wild (wild poinsettia, Euphorbia heterophylla), pigweed, palmer (palmer pigweed, Amaranthus palmeri), waterhemp (common waterhemp, Amaranthus rudis), surinam grass (Brachiaria decumbens), crabgrass, large (large crabgrass Digitaria sanguinalis), crabgrass, Brazil (Brazilian crabgrass, Digitaria horizontalis), panicum, fall (fall panicum, Panicum dichotomiflorum), foxtail, giant (giant foxtail, Setaria faberii), foxtail, green (green foxtail, Setaria viridis), goosegrass (Eleusine indica), johnsongrass (Sorghum halepense), ragweed (common ragweed, Ambrosia elatior), barnyardgrass (Echinochloa crus-galli), sandbur (southern sandbur, Cenchrus echinatus), arrowleaf sida (Sida rhombifolia), ryegrass, Italian (Italian ryegrass, Lolium multiflorum), dayflower, VA (Virginia dayflower, Commelina virginica), field bindweed (Convolvulus arvensis), cocklebur (common cocklebur, Xanthium strumarium), morningglory (Ipomoea coccinea), nightshade (eastern black nightshade, Solanum ptycanthum), kochia (Kochia scoparia), nutsedge, yellow (yellow nutsedge, Cyperus esculentus), smartweed (ladysthumb smartweed, Polygonum persicaria), velvetleaf (Abutilon theophrasti), and beggarticks (hairy beggarticks, Bidens pilosa), were planted into a silt loam soil and treated preemergence with test chemicals formulated in a non-phytotoxic solvent mixture which included a surfactant.
(§2) At the same time, plants from these crop and weed species and also waterhemp_RES1, (ALS & Triazine resistant common waterhemp, Amaranthus rudis), and waterhemp_RES2, (ALS & HPPD resistant common waterhemp, Amaranthus rudis) were planted in pots containing Redi-Earth® planting medium (Scotts Company, 14111 Scottslawn Road, Marysville, Ohio 43041) comprising spaghnum peat moss, vermiculite, wetting agent and starter nutrients were treated with postemergence applications of test chemicals formulated in the same manner. Plants ranged in height from 2 to 18 cm for postemergence treatments (1- to 4-leaf stage). Treated plants and controls were maintained in a greenhouse for 14 to 21 d, after which time all species were compared to controls and visually evaluated. Plant response ratings, summarized in Table E, are based on a scale of 0 to 100 where 0 is no effect and 100 is complete control. A dash (-) response means no test result.

[2] = test system: barnyardgrass (Echinochloa crus-galli); conditions: scale 0 to 100
From the text: as §1, §2

[3] = test system: ragweed (common ragweed, Ambrosia elatior); conditions: Preemergence, scale 0 to 100
From the text: as §1, §2

corn (Zea mays) = conditions: scale 0 to 100
From the text: as §1, §2

[4] = test system: waterhemp (common waterhemp, Amaranthus rudis); conditions: scale 0 to 100
From the text: as §1, §2

[5] = test system: field bindweed (Convolvulus arvensis); conditions: scale 0 to 100
From the text: as §1, §2

[6] = test system: foxtail, green (green foxtail, Setaria viridis); conditions: Preemergence, scale 0 to 100
From the text: as §1, §2

[7] = test system: cocklebur (common cocklebur, Xanthium strumarium); conditions: Preemergence, scale 0 to 100
[8] = test system: crabgrass, large (large crabgrass Digitaria sanguinalis); conditions: Preemergence, scale 0 to 100
[9] = test system: goosegrass (Eleusine indica); conditions: Preemergence, scale 0 to 100
[10] = test system: surinam grass (Brachiaria decumbens); conditions: Preemergence, scale 0 to 100

SMILES: CCOc1cc(=O)n(-c2ccc(F)cc2)nc1Cc1ccnc(C(F)(F)F)c1 [Compound 25, 5-ethoxy-2-(4-fluorophenyl)-6-[[2-(trifluoromethyl)-4-pyridinyl]methyl]-3 (2H)-pyridazinone]
- Plant response rating: Lambsquarters ([1]; 8 g ai/ha): 65
- Plant response rating: Lambsquarters ([1]; 16 g ai/ha): 98
- Plant response rating: Lambsquarters ([1]; 31 g ai/ha): 100
- Plant response rating: Lambsquarters ([1]; 62 g ai/ha): 100
- Plant response rating: Lambsquarters ([1]; 125 g ai/ha): 100
- Plant response rating: Barnyardgrass ([2]; Preemergence, 8 g ai/ha): 0
- Plant response rating: Barnyardgrass ([2]; Preemergence, 16 g ai/ha): 5
- Plant response rating: Barnyardgrass ([2]; Preemergence, 31 g ai/ha): 15
- Plant response rating: Barnyardgrass ([2]; Preemergence, 62 g ai/ha): 35
- Plant response rating: Barnyardgrass ([2]; Preemergence, 125 g ai/ha): 60
- Plant response rating: Ragweed ([3]; 8 g ai/ha): 0
- Plant response rating: Ragweed ([3]; 16 g ai/ha): 0
- Plant response rating: Ragweed ([3]; 31 g ai/ha): 0
- Plant response rating: Ragweed ([3]; 62 g ai/ha): 20
- Plant response rating: Ragweed ([3]; 125 g ai/ha): 50
- Plant response rating: Corn (corn (Zea mays); Preemergence, 8 g ai/ha): 0
- Plant response rating: Corn (corn (Zea mays); Preemergence, 16 g ai/ha): 10
- Plant response rating: Corn (corn (Zea mays); Preemergence, 31 g ai/ha): 25
- Plant response rating: Corn (corn (Zea mays); Preemergence, 62 g ai/ha): 40
- Plant response rating: Corn (corn (Zea mays); Preemergence, 125 g ai/ha): 35
- Plant response rating: Waterhemp ([4]; Preemergence, 8 g ai/ha): 35
- Plant response rating: Waterhemp ([4]; Preemergence, 16 g ai/ha): 50
- Plant response rating: Waterhemp ([4]; Preemergence, 31 g ai/ha): 100
- Plant response rating: Waterhemp ([4]; Preemergence, 62 g ai/ha): 100
- Plant response rating: Waterhemp ([4]; Preemergence, 125 g ai/ha): 100
- Plant response rating: Field Bindweed ([5]; Preemergence, 8 g ai/ha): 0
- Plant response rating: Field Bindweed ([5]; Preemergence, 16 g ai/ha): 0
- Plant response rating: Field Bindweed ([5]; Preemergence, 31 g ai/ha): 0
- Plant response rating: Field Bindweed ([5]; Preemergence, 62 g ai/ha): 5
- Plant response rating: Field Bindweed ([5]; Preemergence, 125 g ai/ha): 100
- Plant response rating: Foxtail, Green ([6]; 8 g ai/ha): 0
- Plant response rating: Foxtail, Green ([6]; 16 g ai/ha): 5
- Plant response rating: Foxtail, Green ([6]; 31 g ai/ha): 35
- Plant response rating: Foxtail, Green ([6]; 62 g ai/ha): 90
- Plant response rating: Foxtail, Green ([6]; 125 g ai/ha): 100
- Plant response rating: Cocklebur ([7]; 8 g ai/ha): 0
- Plant response rating: Cocklebur ([7]; 16 g ai/ha): 50
- Plant response rating: Cocklebur ([7]; 31 g ai/ha): 20
- Plant response rating: Cocklebur ([7]; 62 g ai/ha): 65
- Plant response rating: Cocklebur ([7]; 125 g ai/ha): 65
- Plant response rating: Crabgrass, Large ([8]; 8 g ai/ha): 0
- Plant response rating: Crabgrass, Large ([8]; 16 g ai/ha): 0
- Plant response rating: Crabgrass, Large ([8]; 31 g ai/ha): 75
- Plant response rating: Crabgrass, Large ([8]; 62 g ai/ha): 100
- Plant response rating: Crabgrass, Large ([8]; 125 g ai/ha): 100
- Plant response rating: Goosegrass ([9]; 8 g ai/ha): 5
- Plant response rating: Goosegrass ([9]; 16 g ai/ha): 5
- Plant response rating: Goosegrass ([9]; 31 g ai/ha): 15
- Plant response rating: Goosegrass ([9]; 62 g ai/ha): 75
- Plant response rating: Goosegrass ([9]; 125 g ai/ha): 98
- Plant response rating: Surinam Grass ([10]; 8 g ai/ha): 5
- Plant response rating: Surinam Grass ([10]; 16 g ai/ha): 10
- Plant response rating: Surinam Grass ([10]; 31 g ai/ha): 80
- Plant response rating: Surinam Grass ([10]; 62 g ai/ha): 100
- Plant response rating: Surinam Grass ([10]; 125 g ai/ha): 100

SMILES: COc1cc(=O)n(-c2ccc(F)cc2)nc1Cc1ccnc(C(F)(F)F)c1 [Compound 17, 2-(4-fluorophenyl)-5-methoxy-6-[[2-(trifluoromethyl)-4-pyridinyl]methyl]-3 (2H)-pyridazinone]
- Plant response rating: Lambsquarters ([1]; 16 g ai/ha): 98
- Plant response rating: Lambsquarters ([1]; 31 g ai/ha): 98
- Plant response rating: Lambsquarters ([1]; 62 g ai/ha): 98
- Plant response rating: Lambsquarters ([1]; 125 g ai/ha): 98
- Plant response rating: Lambsquarters ([1]; 250 g ai/ha): 100
- Plant response rating: Barnyardgrass ([2]; Postemergence, 16 g ai/ha): 0
- Plant response rating: Barnyardgrass ([2]; Postemergence, 31 g ai/ha): 10
- Plant response rating: Barnyardgrass ([2]; Postemergence, 62 g ai/ha): 20
- Plant response rating: Barnyardgrass ([2]; Postemergence, 125 g ai/ha): 20
- Plant response rating: Barnyardgrass ([2]; Postemergence, 250 g ai/ha): 65
- Plant response rating: Barnyardgrass ([2]; Preemergence, 16 g ai/ha): 0
- Plant response rating: Barnyardgrass ([2]; Preemergence, 31 g ai/ha): 20
- Plant response rating: Barnyardgrass ([2]; Preemergence, 62 g ai/ha): 35
- Plant response rating: Barnyardgrass ([2]; Preemergence, 125 g ai/ha): 80
- Plant response rating: Barnyardgrass ([2]; Preemergence, 250 g ai/ha): 80
- Plant response rating: Ragweed ([3]; 16 g ai/ha): 0
- Plant response rating: Ragweed ([3]; 31 g ai/ha): 0
- Plant response rating: Ragweed ([3]; 62 g ai/ha): 10
- Plant response rating: Ragweed ([3]; 125 g ai/ha): 35
- Plant response rating: Ragweed ([3]; 250 g ai/ha): 80
- Plant response rating: Corn (corn (Zea mays); Postemergence, 16 g ai/ha): 0
- Plant response rating: Corn (corn (Zea mays); Postemergence, 31 g ai/ha): 10
- Plant response rating: Corn (corn (Zea mays); Postemergence, 62 g ai/ha): 10
- Plant response rating: Corn (corn (Zea mays); Postemergence, 125 g ai/ha): 35
- Plant response rating: Corn (corn (Zea mays); Postemergence, 250 g ai/ha): 65
- Plant response rating: Corn (corn (Zea mays); Preemergence, 16 g ai/ha): 0
- Plant response rating: Corn (corn (Zea mays); Preemergence, 31 g ai/ha): 0
- Plant response rating: Corn (corn (Zea mays); Preemergence, 62 g ai/ha): 30
- Plant response rating: Corn (corn (Zea mays); Preemergence, 125 g ai/ha): 65
- Plant response rating: Corn (corn (Zea mays); Preemergence, 250 g ai/ha): 80
- Plant response rating: Waterhemp ([4]; Postemergence, 16 g ai/ha): 40
- Plant response rating: Waterhemp ([4]; Postemergence, 31 g ai/ha): 50
- Plant response rating: Waterhemp ([4]; Postemergence, 62 g ai/ha): 80
- Plant response rating: Waterhemp ([4]; Postemergence, 125 g ai/ha): 85
- Plant response rating: Waterhemp ([4]; Postemergence, 250 g ai/ha): 95
- Plant response rating: Waterhemp ([4]; Preemergence, 16 g ai/ha): 75
- Plant response rating: Waterhemp ([4]; Preemergence, 31 g ai/ha): 98
- Plant response rating: Waterhemp ([4]; Preemergence, 62 g ai/ha): 98
- Plant response rating: Waterhemp ([4]; Preemergence, 125 g ai/ha): 98
- Plant response rating: Waterhemp ([4]; Preemergence, 250 g ai/ha): 98
- Plant response rating: Field Bindweed ([5]; Postemergence, 16 g ai/ha): 40
- Plant response rating: Field Bindweed ([5]; Postemergence, 31 g ai/ha): 40
- Plant response rating: Field Bindweed ([5]; Postemergence, 62 g ai/ha): 50
- Plant response rating: Field Bindweed ([5]; Postemergence, 125 g ai/ha): 60
- Plant response rating: Field Bindweed ([5]; Postemergence, 250 g ai/ha): 75
- Plant response rating: Field Bindweed ([5]; Preemergence, 16 g ai/ha): 0
- Plant response rating: Field Bindweed ([5]; Preemergence, 31 g ai/ha): 0
- Plant response rating: Field Bindweed ([5]; Preemergence, 62 g ai/ha): 0
- Plant response rating: Field Bindweed ([5]; Preemergence, 125 g ai/ha): 5
- Plant response rating: Field Bindweed ([5]; Preemergence, 250 g ai/ha): 98
- Plant response rating: Foxtail, Green ([6]; 16 g ai/ha): 0
- Plant response rating: Foxtail, Green ([6]; 31 g ai/ha): 50
- Plant response rating: Foxtail, Green ([6]; 62 g ai/ha): 75
- Plant response rating: Foxtail, Green ([6]; 125 g ai/ha): 75
- Plant response rating: Foxtail, Green ([6]; 250 g ai/ha): 100
- Plant response rating: Cocklebur ([7]; 16 g ai/ha): 0
- Plant response rating: Cocklebur ([7]; 62 g ai/ha): 0
- Plant response rating: Crabgrass, Large ([8]; 16 g ai/ha): 35
- Plant response rating: Crabgrass, Large ([8]; 31 g ai/ha): 100
- Plant response rating: Crabgrass, Large ([8]; 62 g ai/ha): 100
- Plant response rating: Crabgrass, Large ([8]; 125 g ai/ha): 100
- Plant response rating: Crabgrass, Large ([8]; 250 g ai/ha): 100
- Plant response rating: Goosegrass ([9]; 16 g ai/ha): 0
- Plant response rating: Goosegrass ([9]; 31 g ai/ha): 20
- Plant response rating: Goosegrass ([9]; 62 g ai/ha): 60
- Plant response rating: Goosegrass ([9]; 125 g ai/ha): 95
- Plant response rating: Goosegrass ([9]; 250 g ai/ha): 98
- Plant response rating: Surinam Grass ([10]; 16 g ai/ha): 0
- Plant response rating: Surinam Grass ([10]; 31 g ai/ha): 20
- Plant response rating: Surinam Grass ([10]; 62 g ai/ha): 65
- Plant response rating: Surinam Grass ([10]; 125 g ai/ha): 75
- Plant response rating: Surinam Grass ([10]; 250 g ai/ha): 75

— patent publication US10202361B2, “Pyridazinones as herbicides” (E I DU PONT DE NEMOURS AND COMPANY, priority 2014, dated 2019)
